From patent US11174235B2, “Carboxy alkyl-ester anti-agglomerants for the control of natural gas hydrates” (ChampionX USA Inc., priority 2018, dated 2021)

Experiment: Sapphire rocking cell anti-agglomerant test
Conditions: dose needed for a pass ranking
Protocol: A Sapphire Rocking Cell RCS is commercially available from PSL Systemtechnik in Germany. The Sapphire Rocking Cell is a laboratory instrument used to test the performance of low dosage hydrate inhibitors. The compounds were evaluated based on their ability to effectively minimize the size of gas hydrate agglomerate particles and disperse those particles into the hydrocarbon phase. Chemical performance was evaluated by determining the maximum treatable water cut (water to oil ratio) and the minimum chemical dosage to register a pass in the rocking cell test.
A rocking cell has two parts, a manifold and a cell body. The manifold is made up of stainless steel fittings that are welded together. It has three stems. An inlet stem is used to charge gas into the cell. An outlet stem is used to release the gas out of the cell. The third stem connects to a transducer, which measures the pressure inside of the cell. The cell body has three layers. The outer layer is a polycarbonate tube, which has a thickness of 0.7 cm. The middle layer is made of stainless steel metal and is connected to the manifold. The inner layer is a high-pressure sapphire tube, which has an outer diameter of 2.8 cm, inner diameter of 1.85 cm, and length of 5 cm. This sapphire tube can handle up to 3000 psi. A stainless steel ball which has a diameter of 1.6 cm is located inside the sapphire tube to induce turbulence and mix fluids during the rocking process.
Test fluids usually contain three components. For the anti-agglomerate test, 7.2 mL of warm crude oil was first injected into the cell. Next, a solution of 30,000 total dissolved solids (TDS) ([…]) of NaCl synthetic brine was injected into the cell to make a 40% water cut mixture. The anti-agglomerate test compound was the final component injected into the cell. The dosage of the test compound was based on the volume of aqueous phase. The initial temperature was set to 21° C. Observations were made every two to three hours, before the rocking was stopped, and also immediately after the restart.
Each cell was charged with Green Canyon gas and pressurized up to 2500 psi. All cells rocked for at least 1.5 to 2 hours until fluid was saturated and pressure stabilized. The rocking was ceased and the tank temperature was reduced to the set point of 4° C. over approximately 8 hours. The cells were then reboosted to a pressure of 2500 psi and remained static for 24 hours. Rocking was restarted for 2 hours with frequent observations to rank each cell with a ranked set of pass/fail criterion. Pressure and tank temperature data was recorded during this time.
The pass/fail criteria are based on the ability of the ball in the rocking cell to move within the sapphire tube. […] In contrast, the anti-agglomerant fails if the ball's movement is obstructed or completely stopped by the formation of gas hydrate agglomerates. The anti-agglomerate's performance is borderline when there are observable gas hydrate agglomerates and at least some of the agglomerates are stuck to the walls of the sapphire tube; when these agglomerates are present and the movement of the ball is not restricted, the anti-agglomerant ranking is a borderline pass.

Row | SMILES | Minimum Effective Dose (MED) (Oil B (25% w/c)) [vol. %] | Minimum Effective Dose (MED) (Oil C (35% w/c)) [vol. %] | Minimum Effective Dose (MED) (Oil D (25% w/c)) [vol. %]
1 | CCCCN(CCCC)CCCN(CCC(=O)O)C(CC(=O)O)C(=O)OCCCCCCCCCCC(C)C (stereo not drawn) [Reaction 24] | 2.0 | 3.0 | 2.0
2 | CCCCCCCCCCCCOC(=O)C(CC(=O)O)NCCCN1CCCCCC1 (stereo not drawn) [Reaction 26] | 2.0 | >3.0 | 2.0
